In paper PMC7239035 (Chemistry, an Asian journal, 2019) one finds radioligand binding data, which are given here for one molecule.

The target in the assay is β2AR (human β2 adrenergic receptor) (Homo sapiens, UniProt P07550). As to the kind of experiment: radioligand binding. The note with it: labelled compound; antagonist; detergent micelles (PPM or DDM, CMC+0.2 wt%); room temperature.
β2AR (human β2 adrenergic receptor), sequence (P07550 whole entry): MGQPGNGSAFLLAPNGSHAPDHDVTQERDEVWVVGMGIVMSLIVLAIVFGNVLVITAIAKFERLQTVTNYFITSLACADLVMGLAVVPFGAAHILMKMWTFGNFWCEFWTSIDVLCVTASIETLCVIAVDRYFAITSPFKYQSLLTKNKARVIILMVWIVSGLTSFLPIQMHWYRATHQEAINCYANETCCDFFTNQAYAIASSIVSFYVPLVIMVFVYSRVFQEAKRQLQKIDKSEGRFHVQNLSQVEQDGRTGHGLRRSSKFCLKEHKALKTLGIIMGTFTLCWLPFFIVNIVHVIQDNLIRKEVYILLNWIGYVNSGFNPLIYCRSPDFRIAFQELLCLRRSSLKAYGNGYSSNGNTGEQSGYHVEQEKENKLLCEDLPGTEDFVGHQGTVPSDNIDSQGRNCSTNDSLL

As for `CCCc1ccccc1OCC(O)CNC(C)C` (stereo not shown) [[3H]-dihydroalprenolol], the radioligand binding result is “receptor ability to bind the radio-labelled antagonist ([^3H]-dihydroalprenolol (DHA))”.
